Measurements from ChEMBL document CHEMBL1667765, “Syntheses, antiproliferative activity and theoretical characterization of acitretin-type retinoids with changes in the lipophilic part” (2011).
Calls of active or inactive are those of the source. The calls are words filed in the database; no cut-off is given here.

Tests used:
MCF7 [1] = test: Antiproliferative activity against human MCF7 cells expressing estrogen receptor assessed as cell growth inhibition 50 uM after 72 hrs by WST-1 assay relative to control; assay type: functional
MCF7 [2] = test: Induction of apoptosis in human MCF7 cells expressing estrogen receptor assessed as increase of PARP cleavage at 10^-5 M after 9 hrs by Western blotting; assay type: functional, cell-based
MCF7 [3] = test: Induction of apoptosis in human MCF7 cells expressing estrogen receptor assessed as increase of PARP cleavage at 10^-5 M after 4 hrs by Western blotting; assay type: functional, cell-based
MCF7 [4] = test: Antiproliferative activity against human MCF7 cells expressing estrogen receptor after 72 hrs by WST-1 assay; assay type: functional, cell-based
MCF7 [5] = test: Cell cycle arrest in human MCF7 cells expressing estrogen receptor at 10^-5 M after 9 to 48 hrs using propidium iodide staining by FACS analysis; assay type: functional, cell-based
[6] = molecular target: RAC-alpha serine/threonine-protein kinase (Homo sapiens) (UniProt P31749); test: Activation of Akt in human MCF7 cells expressing estrogen receptor at 10^-5 M after 4 hrs by Western blotting; assay type: functional, cell-based
MCF7 [7] = test: Antiproliferative activity against human MCF7 cells expressing estrogen receptor at 10 uM after 72 hrs by WST-1 assay; assay type: functional; conditions: MCF7, 72 h
MCF7 [8] = test: Antiproliferative activity against human MCF7 cells expressing estrogen receptor after 72 hrs by MTT assay; assay type: functional, cell-based
[9] = molecular target: RAC-alpha serine/threonine-protein kinase (Homo sapiens) (UniProt P31749); test: Activation of Akt in human MCF7 cells expressing estrogen receptor at 10^-5 M after 9 hrs by Western blotting; assay type: functional, cell-based
MCF7 [10] = test: Antiproliferative activity against human MCF7 cells expressing estrogen receptor assessed as cell growth inhibition 5 uM after 72 hrs by WST-1 assay relative to control; assay type: functional

Chain of RAC-alpha serine/threonine-protein kinase (Homo sapiens) (P31749 whole entry): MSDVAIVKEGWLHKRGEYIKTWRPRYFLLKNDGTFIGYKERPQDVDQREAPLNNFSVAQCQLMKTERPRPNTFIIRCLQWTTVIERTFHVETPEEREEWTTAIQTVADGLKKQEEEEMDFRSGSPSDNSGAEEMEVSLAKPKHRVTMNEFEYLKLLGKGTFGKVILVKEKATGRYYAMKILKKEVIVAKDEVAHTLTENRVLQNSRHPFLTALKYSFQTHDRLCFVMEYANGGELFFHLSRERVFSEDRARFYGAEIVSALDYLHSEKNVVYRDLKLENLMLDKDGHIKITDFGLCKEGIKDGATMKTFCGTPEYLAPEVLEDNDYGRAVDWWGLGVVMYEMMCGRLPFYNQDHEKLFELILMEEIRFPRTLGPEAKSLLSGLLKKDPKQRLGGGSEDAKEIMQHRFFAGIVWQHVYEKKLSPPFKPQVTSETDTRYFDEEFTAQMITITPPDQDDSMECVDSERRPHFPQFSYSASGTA

With CC(/C=C/c1ccc2ccccc2c1)=C\C=C\C(C)=C\C(=O)O the “inhibition (INH)” value (MCF7 [1]) was -25%.
For CC(/C=C/C=C(\C)c1ccc2cc3ccccc3cc2c1)=C\C(=O)O, the “inhibition (INH)” value (MCF7 [1]) was 15%.
COc1ccc2cc(/C(C)=C/C=C/C(C)=C/C(=O)O)ccc2c1 was tested, and the “inhibition (INH)” value (MCF7 [1]) was -32%.
With CC1=C(/C=C/C(C)=C/C=C/C(C)=C/C(=O)O)C(C)(C)CCC1 [TRETINOIN] the “inhibition (INH)” value (MCF7 [1]) was 3.1%.
CC(/C=C/c1ccc(N(C)C)cc1)=C\C=C\C(C)=C\C(=O)O was tested, and the “inhibition (INH)” value (MCF7 [1]) was 5%.
In the case of COc1ccc(/C=C/C(C)=C/C=C/C(C)=C/C(=O)O)cc1OC, the “inhibition (INH)” value (MCF7 [1]) was -30%.
For CC(/C=C/C=C(\C)c1ccc2ccc3cccc4ccc1c2c34)=C\C(=O)O, the “inhibition (INH)” value (MCF7 [1]) was 8%.
For CN[C@@H]1C[C@H]2O[C@@](C)([C@@H]1OC)n1c3ccccc3c3c4c(c5c6ccccc6n2c5c31)C(=O)NC4, the Activity (MCF7 [2]) was “Active” and the Activity (MCF7 [3]) was “Active”.
With COc1cc(OC)c(/C=C/C(C)=C/C=C/C(C)=C/C(=O)O)c(OC)c1 the Activity (MCF7 [2]) was “inactive”, the Activity (MCF7 [3]) was “inactive” and the “inhibition (INH)” value (MCF7 [1]) was -53%. For the same compound, the inhibition (MCF7 [4]) was “Active”, the Activity (MCF7 [5]) was “inactive” and the Activity [6] was “inactive”. For the same compound, the inhibition at 10 µM (MCF7 [7]) was 52%, the inhibition (MCF7 [8]) was “Active” and the Activity [9] was “inactive”.
CC(/C=C/c1ccc(C(F)(F)F)cc1C(F)(F)F)=C\C=C\C(C)=C\C(=O)O was tested, and the “inhibition (INH)” value (MCF7 [1]) was 6% and the “inhibition (INH)” value (MCF7 [10]) was 13.9%.
COc1cc(C)c(/C=C/C(C)=C/C=C/C(C)=C/C(=O)O)c(C)c1C was tested, and the inhibition (MCF7 [4]) was “Dose-dependent effect”.
For CC(/C=C/c1cc(F)c(F)cc1F)=C\C=C\C(C)=C\C(=O)O, the “inhibition (INH)” value (MCF7 [1]) was 10% and the “inhibition (INH)” value (MCF7 [10]) was 2%.
CC(/C=C/c1ccc2ccc3cccc4ccc1c2c34)=C\C=C\C(C)=C\C(=O)O was tested, and the “inhibition (INH)” value (MCF7 [1]) was 4% and the “inhibition (INH)” value (MCF7 [10]) was 5.2%.
